Reference: patent US9458102B2 (priority 2011, dated 2016)
Like-named read-outs stand apart in the source and are kept apart here.

Experiments:
[1] = biological target: heteromeric rod CNG channels consisting of CNGA1 and CNGB1 subunits (Bos taurus, UniProt Q00194+Q28181); test: biochemical; format: cell-based; conditions: for Kd: 2 mM cGMP
Procedure: Currents were elicited by a voltage step protocol from 0 to −50 to +50 mV (See FIG. 1) in the presence of 2 mM cGMP or 2 mM cGMP and compound (5 μM). Time scale is shown in the lower left-hand corner of the panel and FIG. 1, and the zero current level is indicated by the dotted line.
The solid line indicates the fit of the equation for block at a single binding site.
Time scale is shown in the lower left-hand corner of the panel and FIG. 1, and the zero current level is indicated by the dotted line. […] Solid line indicates the fit of the equation for block at a single binding site.
The effectiveness of retinal rod CNG channel current block by the disclosed compounds was tested in Xenopus oocyte preparations. Excised, inside-out patches pulled from oocytes expressed heteromeric rod CNG channels consisting of CNGA1 and CNGB1 subunits. […] CNG channel currents were elicited by a voltage step protocol to −50 and +50 mV (FIG. 1). The apparent KD value at each membrane potential was estimated first by determining I+B and I−B at steady state, where I+B is the current in the presence of blocker and I−B is current in the absence of blocker, for different blocker concentrations ([B]).
Ovaries were surgically removed from adult Xenopus laevis females (Xenopus Express; Brooksville, Fla.) anesthetized with ice-cold 0.1% tricaine and 0.1% NaHCO3 solution. Oocytes were chemically released from ovarian follicles in Ca^2+-free Barth's solution (88 mM NaCl, 1 mM KCl, 2.4 mM NaHCO3, 0.82 mM MgSO4, 7.5 mM Tris, 2.5 mM sodium pyruvate, 100 U/mL penicillin, and 100 μg/mL streptomycin, pH 7.4) containing 0.1 U/mL Liberase Blendzymes (Roche, Indianapolis, Ind.). Stages IV and V oocytes were visually sorted and stored in ND-96 (96 mM NaCl, 2 mM KCl, 1.8 mM CaCl2, 1 mM MgCl2, 5 mM HEPES, 2.5 mM sodium pyruvate, 100 U/mL penicillin, and 100 μg/mL streptomycin, pH 7.4) at 16° C. Oocytes were co-injected the following day with 33 ng of CNGA1 and 67 ng of CNGB1 cRNA […] synthesized from linearized pGEM-HE expression vectors containing the channel subunit cDNA sequence (Strassmaier T & Karpen J, J Med Chem 50, 4186-4194, (2007), incorporated by reference herein) using T7 mMESSAGE mMACHINE® (Ambion, Austin, Tex.). Injected oocytes were incubated at 18° C. the first day and 16° C. for the remaining days.
Recordings from inside-out excised patches were made 3-7 days after oocyte injection on an Axopatch 1D® amplifier (Axon Instruments, Foster City, Calif.). Briefly, oocyte vitelline membranes were removed in solution containing 200 mM K aspartate, 20 mM KCl, 1 mM MgCl2, 10 mM EGTA, 10 mM HEPES, pH 7.4. Oocytes were placed in a recording chamber in a solution containing 130 mM NaCl, 2 mM HEPES, 0.02 mM EDTA, 1 mM EGTA, pH 7.6, and borosilicate glass electrodes (1-3 MΩ) were filled with identical solution. Macroscopic currents were filtered at 1 kHz and sampled at 2 kHz using pCLAMP 8.0® software (Axon Instruments). Channels were either fully activated with 2 mM or partially activated with 50 and 100 μM cGMP. […] Glass syringes and Teflon tubing were used to minimize the binding of compounds to surfaces; concentrations passing through the perfusion system were verified by absorbance.

chymotrypsin = biological target: T1, chymotrypsin (Bos taurus, UniProt P00766); test: In vitro hydrolysis by chymotrypsin; format: in vitro ADME
T1 construct: purchased Worthington Biochemical Co
Procedure: All enzymatic assays were performed with 50 μM compound in 0.1M phosphate buffer, pH 7.4, at 37° C. with stirring, unless otherwise noted. Butyrylcholinesterase stock solutions from human serum (Sigma, St. Louis, Mo.) were prepared at 100 U/mL in 0.1 M phosphate buffer, pH 7.4, and stored at −20° C. until use. Hydrolysis was monitored on an 8452A diode array spectrophotometer (Hewlett-Packard). Product peak wavelength absorption was immediately monitored upon addition of compound. Absorbances for complete hydrolysis were determined when there were no further detectable changes. […] All hydrolysis assays were performed in triplicate, and final rate constants are expressed as the mean±SD of the three individually determined rate constants. […] Activity of chymotrypsin (bovine, Worthington Biochemical Co., 190 μg/mL) was verified with 90 μM 4-nitrophenyl acetate in 0.1 M HEPES solution, pH 6.5, at 37° C. with stirring. Hydrolysis product was monitored at 404 nm for 10 min. Activity of proteinase K (from Engyodontium album, Sigma, 165 μg/mL) was verified with 16.5 mg/mL bovine serum albumin in 0.1 M phosphate buffer, pH 7.4, at 37° C. Samples were taken at time point increments up to 2 hours when the reaction reached completion. Samples were analyzed with 12% SDS-PAGE, stained with 0.1% Coomassie Blue.

[2] = octyl series table, +50 mV, read-out: KD(+50)
[3] = octyl series table, −50 mV, read-out: KD(−50)
[4] = Table 2 (butyl series), +50 mV, read-out: KD(+50)
[5] = Table 2 (butyl series), −50 mV, read-out: KD(−50)

Chain of heteromeric rod CNG channels consisting of CNGA1 and CNGB1 subunits (Q00194 whole entry): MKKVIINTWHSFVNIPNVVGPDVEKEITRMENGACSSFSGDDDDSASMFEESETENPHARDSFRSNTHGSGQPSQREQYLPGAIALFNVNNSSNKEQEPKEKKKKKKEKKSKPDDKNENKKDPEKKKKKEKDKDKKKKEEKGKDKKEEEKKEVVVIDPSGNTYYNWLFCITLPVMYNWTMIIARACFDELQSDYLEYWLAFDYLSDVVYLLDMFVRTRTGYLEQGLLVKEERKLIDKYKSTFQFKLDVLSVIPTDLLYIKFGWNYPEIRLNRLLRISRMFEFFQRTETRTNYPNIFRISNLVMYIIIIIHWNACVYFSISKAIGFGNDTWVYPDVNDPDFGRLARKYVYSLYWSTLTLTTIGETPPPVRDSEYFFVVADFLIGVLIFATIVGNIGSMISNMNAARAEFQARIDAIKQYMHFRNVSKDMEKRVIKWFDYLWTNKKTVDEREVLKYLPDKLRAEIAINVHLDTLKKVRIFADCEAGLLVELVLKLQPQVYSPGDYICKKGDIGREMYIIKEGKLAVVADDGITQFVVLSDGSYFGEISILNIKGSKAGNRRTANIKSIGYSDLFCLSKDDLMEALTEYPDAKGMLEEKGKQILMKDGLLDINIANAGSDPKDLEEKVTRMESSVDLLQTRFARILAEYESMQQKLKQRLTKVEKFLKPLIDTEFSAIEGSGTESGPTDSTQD
Chain of heteromeric rod CNG channels consisting of CNGA1 and CNGB1 subunits (Q28181 whole entry): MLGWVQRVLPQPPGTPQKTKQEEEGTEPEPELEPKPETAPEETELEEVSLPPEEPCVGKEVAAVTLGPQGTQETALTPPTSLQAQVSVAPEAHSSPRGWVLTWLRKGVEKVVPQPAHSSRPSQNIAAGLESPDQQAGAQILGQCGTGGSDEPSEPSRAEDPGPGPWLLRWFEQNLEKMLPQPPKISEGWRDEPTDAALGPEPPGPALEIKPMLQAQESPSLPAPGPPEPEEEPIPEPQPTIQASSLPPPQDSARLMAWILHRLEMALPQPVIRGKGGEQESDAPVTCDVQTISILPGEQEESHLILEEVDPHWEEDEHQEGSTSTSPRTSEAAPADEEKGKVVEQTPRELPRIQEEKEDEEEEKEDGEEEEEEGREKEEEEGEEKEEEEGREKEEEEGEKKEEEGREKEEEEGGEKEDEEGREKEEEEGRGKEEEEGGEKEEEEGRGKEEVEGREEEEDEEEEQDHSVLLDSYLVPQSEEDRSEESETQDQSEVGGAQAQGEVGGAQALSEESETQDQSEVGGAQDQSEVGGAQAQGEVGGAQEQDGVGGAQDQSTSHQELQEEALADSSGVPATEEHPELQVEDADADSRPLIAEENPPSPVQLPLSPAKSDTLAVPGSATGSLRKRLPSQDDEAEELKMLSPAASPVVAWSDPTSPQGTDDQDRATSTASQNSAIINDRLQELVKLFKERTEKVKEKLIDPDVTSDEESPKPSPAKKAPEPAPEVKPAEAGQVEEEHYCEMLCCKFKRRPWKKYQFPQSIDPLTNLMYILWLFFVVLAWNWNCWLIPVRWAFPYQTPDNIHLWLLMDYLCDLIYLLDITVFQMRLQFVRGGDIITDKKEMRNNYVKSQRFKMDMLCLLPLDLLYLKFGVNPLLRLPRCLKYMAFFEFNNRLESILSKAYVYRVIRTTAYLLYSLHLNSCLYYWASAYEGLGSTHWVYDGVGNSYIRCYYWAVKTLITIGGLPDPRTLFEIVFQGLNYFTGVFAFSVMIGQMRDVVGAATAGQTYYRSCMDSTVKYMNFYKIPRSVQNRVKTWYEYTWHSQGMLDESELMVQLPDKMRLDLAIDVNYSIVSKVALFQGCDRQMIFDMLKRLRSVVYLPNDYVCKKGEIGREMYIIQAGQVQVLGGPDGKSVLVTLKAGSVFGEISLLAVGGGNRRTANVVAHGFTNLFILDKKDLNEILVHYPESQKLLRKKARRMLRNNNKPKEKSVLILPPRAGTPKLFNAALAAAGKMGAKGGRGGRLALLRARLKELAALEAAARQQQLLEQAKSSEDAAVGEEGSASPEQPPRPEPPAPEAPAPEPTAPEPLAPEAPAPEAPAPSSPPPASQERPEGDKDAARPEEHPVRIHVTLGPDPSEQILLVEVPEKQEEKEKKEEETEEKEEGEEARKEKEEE

| Compound | Kd [1, 2] [nM] | Kd [1, 3] [nM] | Kd [1, 4] [nM] | Kd [1, 5] [nM] | further results |
| --- | --- | --- | --- | --- | --- |
| CCCCCCCCNc1ccc(C(=O)OCCN(C)C)cc1F [Compound 14e, 2-(dimethylamino)ethyl 4-(octylamino)-3-fluorobenzoate] | 200 ± 100 | 750 ± 860 | – | – | – |
| CCCCCCCCNc1ccc(C(=O)OCCN(C)C)cc1Br [Compound 14f, 2-(dimethylamino)ethyl 4-(octylamino)-3-bromobenzoate] | 140 ± 30 | 240 ± 100 | – | – | – |
| CCCCCCCCNc1ccc(C(=O)OCCN(C)C)cc1[N+](=O)[O-] [Compound 14a, 2-(dimethylamino)ethyl 4-(octylamino)-3-nitrobenzoate] | 8000 ± 5800 | 12600 ± 7300 | – | – | – |
| CCCCCCCCNc1ccc(C(=O)OCCN(C)C)c(Cl)c1 [Compound 14g, 2-(dimethylamino)ethyl 4-(octylamino)-2-chlorobenzoate] | 100 ± 90 | 220 ± 130 | – | – | – |
| CCCCCCCCNc1ccc(C(=O)OCCN(C)C)cc1C [Compound 14c, 2-(dimethylamino)ethyl 4-(octylamino)-3-methylbenzoate] | 500 ± 420 | 1410 ± 840 | – | – | – |
| COc1ccc([C@H]2Sc3ccccc3N(CCN(C)C)C(=O)[C@H]2OC(C)=O)cc1 (relative stereo) [l-cis-diltiazem, reference compound] | – | – | – | – | block of 2 mM cGMP-induced currents [1]: 74.2±5.8% |
| CCCCCCCCNc1ccc(C(=O)OCCN(C)C)cc1Cl [Compound 14d, 2-(dimethylamino)ethyl 4-(octylamino)-3-chlorobenzoate] | 140 ± 40 | 380 ± 160 | – | – | improvement of affinity / blocking potency compared to compound 5 [1]: approximately six-fold improvement |
| CC(=O)Oc1ccc([N+](=O)[O-])cc1 [4-nitrophenyl acetate, reference compound] | – | – | – | – | hydrolysis products with chymotrypsin (chymotrypsin): detected |
| CCCCNc1ccc(C(=O)OCCN(C)C)cc1[N+](=O)[O-] [Compound 12a, 2-(dimethylamino)ethyl 4-(butylamino)-3-nitrobenzoate] | – | – | 5500 ± 3200 | 19600 ± 14400 | – |
| CCCCNc1ccc(C(=O)OCCN(C)C)cc1C [Compound 12c, 2-(dimethylamino)ethyl 4-(butylamino)-3-methylbenzoate] | – | – | 7800 ± 3100 | 28100 ± 13400 | – |
| CCCCCCCCNc1ccc(C(=O)OCCN(C)C)cc1OC [Compound 14b, 2-(dimethylamino)ethyl 4-(octylamino)-3-methoxybenzoate] | 1250 ± 1230 | 3000 ± 3400 | – | – | – |
| CCCCNc1ccc(C(=O)OCCN(C)C)cc1OC [Compound 12b, 2-(dimethylamino)ethyl 4-(butylamino)-3-methoxybenzoate] | – | – | 4300 ± 800 | 18300 ± 4400 | – |
| CCCCNc1ccc(C(=O)OCCN(C)C)cc1Cl [Compound 12d, 2-(dimethylamino)ethyl 4-(butylamino)-3-chlorobenzoate] | – | – | 3000 ± 1000 | 12800 ± 4100 | improvement of affinity / blocking potency compared to compound 1 (tetracaine) [1]: 1.6 fold |
